Results as given in patent publication US5210193A, “Piperazine derivatives” (American Cyanamid Company, priority 1990, dated 1993).

What was measured:
Escherichia coli 311 = experiment: in vivo antibacterial activity of Example 131, survival of infected mice (Table IV); parameters: species or system Charles River CD-1 female mice
Protocol: (§1) The in vivo antibacterial activity of 1-cyclopropyl-6-fluoro-7-[3-(fluoromethyl)-1-piperazinyl]-1,4-dihydro-4-oxo-3-quinolinecarboxylic acid (Example 131) was established in the following test.
(§2) Charles River CD-1 female mice, weighing 20±2 g were infected with either Staphylococcus aureus Smith or Escherichia coli 311. A single oral or subcutaneous dose of 1-cyclopropyl-6-fluoro-7-[3-(fluoromethyl)-1-piperazinyl]-1,4-dihydro-4-oxo-3-quinolinecarboxylic acid was administered 1/2 hour after infection. […]

[1] = test system: Staphylococcus aureus Smith; experiment: as above; parameters: species or system Charles River CD-1 female mice
Protocol: as §1, §2

[2] = subcutaneous, 0.5 mg/kg single dose
[3] = subcutaneous, 1 mg/kg single dose
[4] = subcutaneous, 2 mg/kg single dose

SMILES: O=C(O)c1cn(C2CC2)c2cc(N3CCNC(CF)C3)c(F)cc2c1=O (stereo not drawn) [Example 131, 1-Cyclopropyl-6-fluoro-7-[3-(fluoromethyl)-1-piperazinyl]-1,4-dihydro-4-oxo-3-quinolinecarboxylic acid]
- Survival Ratio 7 Days After Infection (Escherichia coli 311; oral, 0.12 mg/kg single dose): 0/10
- Survival Ratio 7 Days After Infection (Escherichia coli 311; oral, 0.25 mg/kg single dose): 1/10
- Survival Ratio 7 Days After Infection (Escherichia coli 311; oral, 0.5 mg/kg single dose): 3/10
- Survival Ratio 7 Days After Infection (Escherichia coli 311; oral, 1 mg/kg single dose): 7/10
- Survival Ratio 7 Days After Infection (Escherichia coli 311; oral, 2 mg/kg single dose): 10/10
- Survival Ratio 7 Days After Infection (Escherichia coli 311; subcutaneous, 0.12 mg/kg single dose): 0/10
- Survival Ratio 7 Days After Infection (Escherichia coli 311; subcutaneous, 0.25 mg/kg single dose): 2/10
- Survival Ratio 7 Days After Infection (Escherichia coli 311; [2]): 7/10
- Survival Ratio 7 Days After Infection (Escherichia coli 311; [3]): 10/10
- Survival Ratio 7 Days After Infection (Escherichia coli 311; [4]): 10/10
- Survival Ratio 7 Days After Infection ([1]; oral, 1 mg/kg single dose): 0/15
- Survival Ratio 7 Days After Infection ([1]; oral, 2 mg/kg single dose): 2/15
- Survival Ratio 7 Days After Infection ([1]; oral, 4 mg/kg single dose): 10/15
- Survival Ratio 7 Days After Infection ([1]; oral, 8 mg/kg single dose): 15/15
- Survival Ratio 7 Days After Infection [1, 2]: 0/15
- Survival Ratio 7 Days After Infection [1, 3]: 2/15
- Survival Ratio 7 Days After Infection [1, 4]: 14/15
- Survival Ratio 7 Days After Infection ([1]; subcutaneous, 4 mg/kg single dose): 15/15
